Reference: US6479233B1, “Electrogenerated chemiluminescence labels for analysis and/or referencing” (IGEN International, Inc., priority 1994, dated 2002)
Like-named read-outs stand apart in the source and are kept apart here. One block for each molecule: values may come before it.

Legend:
[1] = parameters: peak emission: unit not given here; conditions: cited from earlier work; for fluorescence efficiency φF: aqueous media
[2] = non-aqueous ion annihilation scheme; cited from earlier work
[3] = Maximum solubility of aqueous DPAS in sodium phosphate buffer; type: physicochemical; conditions: 0.15 M sodium phosphate buffer (pH 7.5)
Text: The maximum solubility of aqueous DPAS in 0.15 M sodium phosphate buffer (pH 7.5) is approximately 1×10^−5 M. At this low concentration, no anodic current can be observed for DPAS above the background oxidation of water as shown in FIG. 1. However, if 1×10^−5 M DPAS is oxidized in the presence of 0.15 M TPrA, an emission that coincides with an oxidation wave occurs that is superimposed on the TPrA oxidation and background oxidation of water as shown in FIGS. 2a-2b. The fact that an oxidation current is observed for 1×10^−5 M DPAS only in the presence of TPrA implicates a catalytic current enhancement due to the regeneration of DPAS via reduction of DPAS^+ by TPrA or an intermediate. For this catalysis, the cyclic sequence of reactions is analogous to equation schemes (5), (6a), (7), (8) or (10) and (11), and (9) above where Ru(bpy)3^3+/2+/+ is replaced by DPAS^+/0/− respectively, XY^z is TPrA, X^x is Pr2NCH.Et and Y^y is H^+. Despite the low DPAS concentration, 1×10^−5 M, this emission is visibly blue when viewed in a dark room and no emission is observed in the absence of either TPrA or DPAS.

[4] = Cyclic voltammetry / standard potentials; type: physicochemical
Method: Cyclic voltammetry without photon detection was obtained by using either a BAS 100A Electrochemical Analyzer (Bioanalytical Systems, West Lafayette, Ind.) or a Princeton Applied Research (PAR) model 173/175 potentiostat/universal programmer (Princeton, N.J.) and Omnigraphic 20000 X-Y recorder (Bausch and Lomb-Houston Instrument Division, Austin, Tex.). Cyclic voltammograms with simultaneous photon detection were recorded using the PAR 173/175 in conjunction with a Hamamatsu C1230 photon counter (Bridgewater, N.J.) equipped with a Hamamatsu R928-P photomultiplier tube. The photomultiplier tube was housed in a water jacketed Products For Research, Inc. model TE308TSRF refrigerated chamber maintained at −10° C. Primary cooling of the water jacket to 10° C. was accomplished using an MGW Lauda model RMS6 refrigeration unit (sold by Brinkmann Instruments Co., Westbury, N.Y.). For plots of ECL intensity vs. potential, the output from the photon counter was fed into the Y-axis of the X-Y recorder during potential scans.
Except where noted, all electrochemical and ECL experiments utilized a conventional 3-electrode cell configuration. Pt disk working electrodes were polished on a felt pad (Buehler, Ltd., Lake Bluff, Ill.) before each experiment run with 0.05 μm alumina (Buehler, Ltd.) suspended in water.
For cyclic voltammetry runs without photon detection, the CPZ embodiment utilized a highly-oriented pyrolytic graphite (HOPG; Union Carbide, Cleveland, Ohio) working electrode (6 mm dia. disk with freshly exposed material for each experiment), Pt wire counter electrode and Ag quasi-reference electrode (AgQRE) in a recently describe configuration. See Xu, X.; Bard, A. J. Langmuir, 1994, 10, 2409. Similar runs for all other compounds utilized a 1.5 mm diameter Pt disk working electrode sealed in glass in combination with a Pt wire counter electrode and AgQRE.
Nonaqueous potential referencing to ferrocene was accomplished by adding the standard directly to the solutions. […]

[5] = Fluorescence spectra (CCD camera, 366 nm UV excitation); type: physicochemical; conditions: for fluorescence maximum: pH 8.5 sodium phosphate buffer
Method: (§1) Fluorescence and ECL spectra were recorded using a charge-coupled device (CCD) camera and spectrometer (1 mm entrance slit) interfaced to a Dell System 200 personal computer (Austin, Tex.) as previously described. The same procedures (spectral calibration etc.) were followed except that different pulse sequences were used and the CCD detector was maintained at −110° C. for the TPrA/THCOOH and TPrA/DPAS experiments and −100° C. for the S2O8^2−/DPAS experiments. Excitation for the fluorescence spectra was achieved by holding a longwave (366 nm) UV lamp (UVP, Inc., San Gabriel, Calif.; model UVGL-25; sold by Fisher Scientific, Pittsburgh, Pa.) next to the cell and at right angles to the entrance slit of the spectrometer.

[6] = ECL spectra (CCD camera and spectrometer); type: physicochemical; parameters: wavelength centered emission: unit not given here; conditions: for ECL maximum: pH 8.5 sodium phosphate buffer
Method: as §1
The DPAS/TPrA ECL spectrum and emission vs. potential scans utilized a 6×9 mm Pt gauze flag (52 mesh gauze; Aldrich) working electrode, an AgQRE and a round (9 mm diameter, 0.5 mm thick) Au foil counter electrode. The 2-THCOOH ECL spectrum also utilized this arrangement. The gauze working electrode was cleaned prior to each experiment by immersion in concentrated nitric acid followed by rinsing in distilled water and heating in a bunsen burner flame.
The DPAS/S2O8^2− ECL spectrum and emission vs. potential scan utilized a 2.0 mm diameter Pt disk working electrode sealed in glass in combination with a Pt wire counter electrode and AgQRE.

SMILES: [Ru+2].c1ccc(-c2ccccn2)nc1.c1ccc(-c2ccccn2)nc1.c1ccc(-c2ccccn2)nc1 [Ru(bpy)3^2+, tris (2,2-bipyridine)ruthenium(II), reference compound]
fluorescence efficiency φF [1]: about 0.05

SMILES: c1ccc2c(c1)Sc1ccccc1S2 [thianthrene, reference compound]
emission maximum of fluorescence ([1]; in MeCN): 434 nm
ECL peak intensity wavelength [2]: 434 nm

More lines, main results first:

solubility [3]: ~10 µM
E° of DPAS+/DPAS ([4]; oxidation): ≈ +1.3 V vs SCE
E° of DPAS/DPAS− ([4]; reduction): ≈ −1.9 V vs SCE
singlet excited state energy Es [5]: 2.9 eV
fluorescence peak intensity wavelength ([5]; 1.1 mM DPAS, 25 mM (NH4)2S2O8, MeCN-water 1:1): 430 nm
fluorescence peak intensity wavelength ([5]; 1×10^−5 M DPAS, 0.15 M TPrA, pH 7.5 sodium phosphate buffer): 430 nm
ECL peak intensity wavelength ([6]; 1.1 mM DPAS, 25 mM (NH4)2S2O8, MeCN-water 1:1, reduction at −2.2 V vs SCE): 430 nm
ECL peak intensity wavelength ([6]; 1×10^−5 M DPAS, 0.15 M TPrA, pH 7.5 sodium phosphate buffer, oxidation): 430 nm
wavelength centered emission ([6]; emission spectra of FIG. 19): 430
SMILES: O=S(=O)([O-])c1ccc2c(-c3ccccc3)c3ccccc3c(-c3ccccc3)c2c1.[Na+] [DPAS, sodium 9,10-diphenylanthracene-2-sulfonate]
fluorescence efficiency φF [1]: 0.87
peak emission ([1]; fluorescence): 428

fluorescence maximum ([5]; 0.15 M TPrA): 505 nm
ECL maximum ([6]; 0.15 M TPrA): 570 nm
SMILES: O=C(O)c1cccc2c1Sc1ccccc1S2 [1-THCOOH, 1-thianthrenecarboxylic acid]

oxidation potential ([4]; aqueous solution, pH 8.5 sodium phosphate buffer, Pt electrode, vs SCE): ~+1.0 V
fluorescence maximum ([5]; 0.15 M TPrA): 480 nm
ECL maximum ([6]; 0.15 M TPrA): 570 nm
SMILES: O=C(O)c1ccc2c(c1)Sc1ccccc1S2 [2-THCOOH, 2-thianthrenecarboxylic acid]
